Reference: ChEMBL document CHEMBL1158898, “New flavans, spirostanol sapogenins, and a pregnane genin from Tupistra chinensis and their cytotoxicity” (2003)

System: not listed separately
Assay: Cytotoxicity against human HONE1 cells at 50 uM
Type: functional

**Q.** With `C=C1CC[C@@]2(OC1)O[C@H]1C[C@H]3[C@@H]4CC[C@]5(O)[C@@H](O)[C@@H](O)[C@@H](O)[C@@H](O)[C@]5(C)[C@H]4CC[C@]3(C)[C@H]1[C@@H]2C` as the compound, how does the inhibition at 50 µM read?
**A.** The inhibition at 50 µM was 100%.

**Q.** Which inhibition at 50 µM does the source give for `C=C1CC[C@@]2(OC1)O[C@H]1C[C@H]3[C@@H]4CC=C5C[C@H](O)C[C@@H](O)[C@]5(C)[C@H]4CC[C@]3(C)[C@H]1[C@@H]2C` here?
**A.** The inhibition at 50 µM was 45%.

**Q.** For `Oc1ccc([C@H]2CCc3ccc(O)cc3O2)cc1` [TUPICHINOL C], which inhibition at 50 µM is on record?
**A.** The inhibition at 50 µM was 50%.

System: NUGC
Assay: Cytotoxicity against human NUGC cells at 50 uM
Type: functional

**Q.** With `C=C1CC[C@@]2(OC1)O[C@H]1C[C@H]3[C@@H]4CC[C@]5(O)[C@@H](O)[C@@H](O)[C@@H](O)[C@@H](O)[C@]5(C)[C@H]4CC[C@]3(C)[C@H]1[C@@H]2C` as the compound, how does the inhibition at 50 µM read?
**A.** The inhibition at 50 µM was 100%.

**Q.** For `C=CCc1ccc(O)c(O)c1` [HYDROXYCHAVICOL], which inhibition at 50 µM is on record?
**A.** The inhibition at 50 µM was 96%.

**Q.** With `C=C1CC[C@@]2(OC1)O[C@H]1C[C@H]3[C@@H]4CC[C@]5(O)[C@@H](O)[C@@H](O)C[C@@H](O)[C@]5(C)[C@H]4CC[C@]3(C)[C@H]1[C@@H]2C` [RANMOGENIN A] as the compound, how does the inhibition at 50 µM read?
**A.** Its inhibition at 50 µM is 80%.

**Q.** Which inhibition at 50 µM does the source give for `C=C1CC[C@@]2(OC1)O[C@H]1C[C@H]3[C@@H]4CC[C@]5(O)C[C@@H](OC(C)=O)[C@@H](OC(C)=O)[C@@H](OC(C)=O)[C@]5(C)[C@H]4CC[C@]3(C)[C@H]1[C@@H]2C` [TUPICHIGENIN AA] here?
**A.** Its inhibition at 50 µM is 50%.

**Q.** Which inhibition at 50 µM does the source give for `C=C1CC[C@@]2(OC1)O[C@H]1C[C@H]3[C@@H]4CC[C@]5(O)C[C@@H](O)[C@@H](OC(C)=O)[C@@H](OC(C)=O)[C@]5(C)[C@H]4CC[C@]3(C)[C@H]1[C@@H]2C` [TUPICHIGENIN AC] here?
**A.** The inhibition at 50 µM was 40%.

**Q.** Which inhibition at 50 µM does the source give for `C=C1CC[C@@]2(OC1)O[C@H]1C[C@H]3[C@@H]4CC[C@]5(O)C[C@@H](O)[C@@H](O)[C@@H](O)[C@]5(C)[C@H]4CC[C@]3(C)[C@H]1[C@@H]2C` [TUPICHIGENIN A] here?
**A.** Its inhibition at 50 µM is 42%.

**Q.** Which inhibition at 50 µM does the source give for `COc1ccc2c(c1C)O[C@H](c1ccc(O)cc1)[C@H](O)C2` [TUPICHINOL A] here?
**A.** The inhibition at 50 µM was 30%.

**Q.** With `CC(=O)C1=CC[C@H]2[C@@H]3CC=C4C[C@H](O)C[C@@H](O)[C@]4(C)[C@H]3CC[C@]12C` [TUPIPREGNENOLONE] as the compound, how does the inhibition at 50 µM read?
**A.** Its inhibition at 50 µM is 25%.
